The record followed here is patent EP0528997B1, “DISULFIDE DERIVATIVES OF MERCAPTOACYLAMINO ACIDS” (SCHERING CORPORATION, priority 1990, dated 1991).

Assay [1] relates to spontaneously hypertensive rats (SHR). Description: ANF potentiation procedure (antihypertensive effect in combination with ANF). Format: in vivo. The conditions noted are these: drop in blood pressure; 30 mg/kg sc. The method, then:
The antihypertensive effect of mercaptoacylamino acid disulfide derivatives in combination with ANF can be determined according to the following procedures:
Male spontaneously hypertensive rats (SHR), 16-18 weeks old, 270-350 g, are anesthetized with ether and the abdominal aorta is cannulated through the tail artery. The animals are then placed into restrainers to recover from anesthesia (in less than 10 min.) and remain inside throughout the experiments. Through a pressure transducer (Gould P23 series) analog blood pressure signals are registered on a Beckman 612 recorder. A Buxco digital computer is used to obtain mean arterial pressures. Patency of the arterial cannula is maintained with a continuous infusion of 5% dextrose at 0.2 ml/hr. Animals are allowed a 90-min equilibration period. The animals first undergo a challenge with an ANF such as atriopeptin II (AP II) or AP28 30 »g/kg iv and at the end of 60 min. are treated with drug vehicle or a mercapto-acylamino acid subcutaneously. A second ANF challenge is administered 15 min. later and blood pressure is monitored for the next 90 min.

Assay [2] has as its system DOCA salt hypertension in the rat. In words: DOCA salt hypertension model (antihypertensive effect). In kind it is in vivo, Sprague Dawley rats. The conditions noted are these: drop in blood pressure.

Take `CCOC(=O)[C@H](CCSC)NC(=O)[C@@H](CSSC[C@@H](Cc1ccccc1C)C(=O)N[C@@H](CCSC)C(=O)OCC)Cc1ccccc1C` [Example 1, 1,1'-[DITHIOBIS-[2(S)-(2-METHYLBENZYL)-1-OXO-3,1-PROPANEDIYL]]BIS-(S)-METHIONINE DIETHYL ESTER]: the “ANF Potentiation ΔBP (mmHg)” value in assay [1] stood at 0 mmHg. Besides, in assay [2] (3 mg/kg po), the “DOCA Salt ΔBP (mmHg)” value is 15 mmHg.

`Cc1ccccc1C[C@H](CSSC[C@@H](Cc1ccccc1C)C(=O)NC[C@H](O)C(=O)O)C(=O)NC[C@H](O)C(=O)O` [Example 4, 1,1'-[DITHIOBIS-[2(S)-(2-METHYLBENZYL)-1-OXO-3,1-PROPANEDIYL]]BIS-(S)-ISOSERINE]: in assay [1], the “ANF Potentiation ΔBP (mmHg)” value was found to be 24 mmHg. Moreover, the “DOCA Salt ΔBP (mmHg)” value in assay [2] (0.1 mg/kg po) is given as 0 mmHg; in assay [2] (1 mg/kg po), 21 mmHg; in assay [2] (10 mg/kg po), 31 mmHg.

For the molecule `CCOC(=O)[C@@H](O)CNC(=O)[C@@H](CSSC[C@@H](Cc1ccccc1C)C(=O)NC[C@H](O)C(=O)OCC)Cc1ccccc1C` [Example 3, 1,1'-[DITHIOBIS-[2(S)-(2-METHYLBENZYL)-1-OXO-3,1-PROPANEDIYL]]BIS-(S)-ISOSERINE DIETHYL ESTER], in assay [1], the “ANF Potentiation ΔBP (mmHg)” value is reported as 29 mmHg. Further, the “DOCA Salt ΔBP (mmHg)” value in assay [2] (0.1 mg/kg po) was found to be 31 mmHg; in assay [2] (1 mg/kg po), 30 mmHg; in assay [2] (10 mg/kg po), 44 mmHg.

For the molecule `CSCC[C@H](NC(=O)[C@@H](CSSC[C@@H](Cc1ccccc1C)C(=O)N[C@@H](CCSC)C(=O)O)Cc1ccccc1C)C(=O)O` [Example 2, 1,1'-[DITHIOBIS-[2(S)-(2-METHYLBENZYL)-1-OXO-3,1-PROPANEDIYL]]BIS-(S)-METHIONINE], in assay [1], the “ANF Potentiation ΔBP (mmHg)” value is given as 27 mmHg. The “DOCA Salt ΔBP (mmHg)” value is reported as 41 mmHg in assay [2] (1 mg/kg po) and 57 mmHg in assay [2] (10 mg/kg po).
